Experimental data: ChEMBL document CHEMBL4834461, “Intracellular fluorescence competition assay for inhibitor engagement of histone deacetylase” (Bioorg Med Chem Lett, 2021)

What was measured:
[1] = molecular target: T1, Protein deacetylase HDAC6 (Homo sapiens, UniProt Q9UBN7); assay: Inhibition of HDAC6 (unknown origin)
T1 sequence (Q9UBN7 whole entry): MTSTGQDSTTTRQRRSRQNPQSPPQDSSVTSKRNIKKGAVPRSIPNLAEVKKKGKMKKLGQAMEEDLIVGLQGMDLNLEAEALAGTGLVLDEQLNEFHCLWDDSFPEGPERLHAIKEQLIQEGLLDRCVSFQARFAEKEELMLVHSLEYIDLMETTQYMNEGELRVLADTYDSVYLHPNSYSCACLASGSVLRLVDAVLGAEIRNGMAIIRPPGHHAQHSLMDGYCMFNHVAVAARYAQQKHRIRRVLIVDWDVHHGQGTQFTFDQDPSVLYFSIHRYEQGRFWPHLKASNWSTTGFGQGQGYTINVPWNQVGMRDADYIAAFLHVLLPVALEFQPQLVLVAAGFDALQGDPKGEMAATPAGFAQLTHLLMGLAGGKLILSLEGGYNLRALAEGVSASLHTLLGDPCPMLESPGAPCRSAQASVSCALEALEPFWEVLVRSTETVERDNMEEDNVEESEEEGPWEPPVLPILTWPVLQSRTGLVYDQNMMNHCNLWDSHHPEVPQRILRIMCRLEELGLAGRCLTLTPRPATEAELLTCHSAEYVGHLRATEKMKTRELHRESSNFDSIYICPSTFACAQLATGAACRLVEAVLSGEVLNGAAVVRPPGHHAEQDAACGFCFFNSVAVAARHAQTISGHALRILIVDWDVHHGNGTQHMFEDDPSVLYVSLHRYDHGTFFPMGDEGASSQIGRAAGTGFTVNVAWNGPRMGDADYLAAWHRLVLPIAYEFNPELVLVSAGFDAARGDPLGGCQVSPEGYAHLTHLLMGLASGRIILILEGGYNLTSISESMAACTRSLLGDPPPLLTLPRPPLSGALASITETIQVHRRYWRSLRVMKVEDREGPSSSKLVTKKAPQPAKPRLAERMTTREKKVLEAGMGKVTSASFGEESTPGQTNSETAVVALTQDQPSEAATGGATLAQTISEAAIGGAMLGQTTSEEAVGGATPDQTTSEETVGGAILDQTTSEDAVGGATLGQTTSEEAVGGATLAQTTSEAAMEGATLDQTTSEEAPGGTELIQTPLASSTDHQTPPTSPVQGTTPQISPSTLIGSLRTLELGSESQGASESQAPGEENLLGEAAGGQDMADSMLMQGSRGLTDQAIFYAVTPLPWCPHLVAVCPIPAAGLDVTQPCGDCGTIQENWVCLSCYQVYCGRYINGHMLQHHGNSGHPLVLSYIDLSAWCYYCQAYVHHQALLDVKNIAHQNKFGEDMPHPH

Histone deacetylase 1 = Histone deacetylase 1 (Homo sapiens, UniProt Q13547); assay: Inhibition of HDAC1 (unknown origin)
Sequence of Histone deacetylase 1 (Q13547 whole entry): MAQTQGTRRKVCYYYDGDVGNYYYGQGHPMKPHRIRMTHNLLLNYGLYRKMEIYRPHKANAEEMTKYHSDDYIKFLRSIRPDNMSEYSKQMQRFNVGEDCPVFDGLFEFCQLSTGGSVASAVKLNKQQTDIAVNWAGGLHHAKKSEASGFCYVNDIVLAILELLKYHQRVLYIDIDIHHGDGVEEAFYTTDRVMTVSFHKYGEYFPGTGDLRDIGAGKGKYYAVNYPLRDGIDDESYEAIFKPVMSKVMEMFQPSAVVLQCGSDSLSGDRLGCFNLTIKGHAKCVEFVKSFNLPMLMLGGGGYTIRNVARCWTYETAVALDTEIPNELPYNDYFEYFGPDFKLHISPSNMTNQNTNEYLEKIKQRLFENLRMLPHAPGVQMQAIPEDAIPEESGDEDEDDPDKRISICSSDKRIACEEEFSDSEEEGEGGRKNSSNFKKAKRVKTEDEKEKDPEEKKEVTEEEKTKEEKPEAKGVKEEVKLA

| SMILES | IC50 [1] | IC50 (Histone deacetylase 1) |
| --- | --- | --- |
| O=C(CCCCCN1C(=O)c2cccc3c(OCc4ccc(C(F)(F)F)cc4)ccc(c23)C1=O)NO | 12 nM | 280 nM |
| CCCNc1ccc2c3c(cccc13)C(=O)N(CCCC(=O)NO)C2=O | 1120 nM | 9500 nM |
